“And” between values parts separate entries of the source, which are not always exact repeats. Identical values can stand only once.
Experiments:
[1] = xn = mol fraction of the nth substance listed

O=[N+]([O-])c1ccccc1
viscosity
Conditions | 293.15 K | 298.15 K | 303.15 K | 308.15 K | 313.15 K | 318.15 K | 323.15 K
100 kPa | 2.087 mPa·s | 1.909 mPa·s | 1.755 mPa·s | – | 1.501 mPa·s | 1.397 mPa·s | 1.303 mPa·s
101 kPa | 1.931 mPa·s | – | – | 1.457 mPa·s and 1.242 mPa·s and 1.601 mPa·s | 1.402 mPa·s | – | 1.192 mPa·s
101.3 kPa | – | 1.773 mPa·s | – | – | 1.373 mPa·s | – | –
101.33 kPa | 2.024 mPa·s and 2.079 mPa·s and 2.079 mPa·s | – | 1.665 mPa·s | – | – | – | –

c1ccccc1
Conditions | viscosity
293.15 K, 100 kPa | 0.641 mPa·s and 0.656 mPa·s
293.15 K, 101 kPa | 0.644 mPa·s and 0.629 mPa·s and 0.646 mPa·s
293.15 K, 101.33 kPa | 0.645 mPa·s and 0.645 mPa·s
293.16 K, 101 kPa | 0.652 mPa·s
294.35 K, 101.33 kPa | 0.6559 mPa·s
298 K, 101 kPa | 0.6139 mPa·s
298 K, 101.33 kPa | 0.596 mPa·s
298.15 K, 100 kPa | 0.6121 mPa·s
298.15 K, 101.3 kPa | 0.609 mPa·s
303.15 K, 101.32 kPa | 0.576 mPa·s
303.95 K, 101.33 kPa | 0.5989 mPa·s
304.85 K, 101.33 kPa | 0.5927 mPa·s
307.35 K, 101.33 kPa | 0.53 mPa·s
307.4 K, 101.33 kPa | 0.309 mPa·s
312.95 K, 101.33 kPa | 0.5173 mPa·s
313 K, 101 kPa | 0.4925 mPa·s and 0.4923 mPa·s and 0.4923 mPa·s
313 K, 101.33 kPa | 0.489 mPa·s
313.15 K, 100 kPa | 0.491 mPa·s
313.25 K, 101.33 kPa | 0.5324 mPa·s
318 K, 101 kPa | 0.4788 mPa·s
318 K, 101.3 kPa | 0.4765 mPa·s
318.15 K, 101.33 kPa | 0.553 mPa·s and 0.553 mPa·s
322.75 K, 101.33 kPa | 0.4749 mPa·s
322.85 K, 101.33 kPa | 0.4803 mPa·s
323.15 K, 100 kPa | 0.435 mPa·s
323.15 K, 101 kPa | 0.438 mPa·s and 0.4367 mPa·s and 0.434 mPa·s

CCCCCCCC + c1ccccc1
[1], 298.15 K, 101.33 kPa
Conditions | viscosity [mPa·s]
x1 = 0.04472 | 0.5829
x1 = 0.09184 | 0.5595
x1 = 0.1715 | 0.5352
x1 = 0.2954 | 0.5061
x1 = 0.4088 | 0.4934
x1 = 0.4907 | 0.4904
x1 = 0.5855 | 0.4924
x1 = 0.739 | 0.4929
x1 = 0.928 | 0.5124

CCCCCCCCCCCCCC + c1ccccc1
[1]
Conditions | viscosity [mPa·s]
298 K, 101 kPa, x2 = 0.5 | 1.239
298.15 K, 101 kPa, x1 = 0.1005 | 0.696
298.15 K, 101 kPa, x1 = 0.2025 | 0.803
298.15 K, 101 kPa, x1 = 0.3001 | 0.909
298.15 K, 101 kPa, x1 = 0.3948 | 1.038
298.15 K, 101 kPa, x1 = 0.469 | 1.168
298.15 K, 101 kPa, x1 = 0.5776 | 1.318
298.15 K, 101 kPa, x1 = 0.6954 | 1.468
298.15 K, 101 kPa, x1 = 0.8004 | 1.664
298.15 K, 101 kPa, x1 = 0.9094 | 1.86
298.15 K, 101.33 kPa, x1 = 0.04444 | 0.6498
298.15 K, 101.33 kPa, x1 = 0.09068 | 0.6807
298.15 K, 101.33 kPa, x1 = 0.2125 | 0.8158
298.15 K, 101.33 kPa, x1 = 0.4169 | 1.079
298.15 K, 101.33 kPa, x1 = 0.5121 | 1.221
298.15 K, 101.33 kPa, x1 = 0.6271 | 1.423
298.15 K, 101.33 kPa, x1 = 0.7139 | 1.579
298.15 K, 101.33 kPa, x1 = 0.8006 | 1.716
298.15 K, 101.33 kPa, x1 = 0.8822 | 1.842
303.15 K, 101 kPa, x1 = 0.1005 | 0.653
303.15 K, 101 kPa, x1 = 0.2025 | 0.748
303.15 K, 101 kPa, x1 = 0.3001 | 0.842
303.15 K, 101 kPa, x1 = 0.3948 | 0.961
303.15 K, 101 kPa, x1 = 0.469 | 1.081
303.15 K, 101 kPa, x1 = 0.5776 | 1.211
303.15 K, 101 kPa, x1 = 0.6954 | 1.341
303.15 K, 101 kPa, x1 = 0.8004 | 1.513
303.15 K, 101 kPa, x1 = 0.9094 | 1.684
308.15 K, 101 kPa, x1 = 0.1005 | 0.611
308.15 K, 101 kPa, x1 = 0.2025 | 0.699
308.15 K, 101 kPa, x1 = 0.3001 | 0.786
308.15 K, 101 kPa, x1 = 0.3948 | 0.894
308.15 K, 101 kPa, x1 = 0.469 | 1.002
308.15 K, 101 kPa, x1 = 0.5776 | 1.115
308.15 K, 101 kPa, x1 = 0.6954 | 1.228
308.15 K, 101 kPa, x1 = 0.8004 | 1.384
308.15 K, 101 kPa, x1 = 0.9094 | 1.54
318 K, 101 kPa, x2 = 0.5 | 0.9217
